Measurements as given in US20250042855A1, “PERIPHERALLY AND LUMINALLY-RESTRICTED INHIBITORS OF THE SEROTONIN TRANSPORTER AS TREATMENTS FOR DISORDERS OF GASTROINTESTINAL MOTILITY AND GUT-BRAIN AXIS” (The Johns Hopkins University, priority 2021, published 2025).
Counter-ions that a name gives are not always drawn.

Key:
[1] = biological target: T1, serotonin transporter SERT (Homo sapiens, UniProt P31645); assay: Uptake of serotonin (5-HT) in human HEK-293 cells, quantitation of [3H] serotonin; assay type: cell-based; details: HEK293, 0.25 h, 10 micromolar concentration, 15 minutes @ 25° C., read-out: Activity Range: antagonism of uptake of serotonin (5-HT)
T1 construct: host or cells: HEK-293
T1 sequence (P31645 whole entry): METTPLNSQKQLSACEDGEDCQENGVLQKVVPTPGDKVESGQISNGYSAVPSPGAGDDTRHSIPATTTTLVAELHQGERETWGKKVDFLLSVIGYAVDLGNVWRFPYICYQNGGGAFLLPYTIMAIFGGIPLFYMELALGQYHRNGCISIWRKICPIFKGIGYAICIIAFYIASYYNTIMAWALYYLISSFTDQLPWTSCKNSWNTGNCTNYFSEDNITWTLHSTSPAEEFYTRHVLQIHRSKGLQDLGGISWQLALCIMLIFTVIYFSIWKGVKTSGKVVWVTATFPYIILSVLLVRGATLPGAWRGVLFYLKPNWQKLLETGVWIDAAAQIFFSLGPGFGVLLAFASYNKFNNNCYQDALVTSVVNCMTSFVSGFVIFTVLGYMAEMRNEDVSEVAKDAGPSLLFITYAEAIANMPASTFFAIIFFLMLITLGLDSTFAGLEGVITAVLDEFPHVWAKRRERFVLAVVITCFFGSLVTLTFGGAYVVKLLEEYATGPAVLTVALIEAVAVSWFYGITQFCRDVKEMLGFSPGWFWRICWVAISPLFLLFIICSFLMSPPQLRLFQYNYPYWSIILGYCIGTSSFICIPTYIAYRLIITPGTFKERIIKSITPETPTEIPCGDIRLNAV
Experimental: Uptake of serotonin (5-Hydroxytryptamine (5-HT)) in human HEK-293 cells embryonic kidney was measured according to the literature procedure by Gu H, Wall S. C. and Rudnick G. J Biol Chem. 1994 269, 7124. Using the following conditions: • Quantitation Method: Quantitation of [^3H] Serotonin • Vehicle: 0.50% DMSO • Incubation Time/Temp: 15 minutes @ 25° C. • Incubation Buffer: 5 mM Tris —HCl, 7.5 mM HEPES, pH 7.1, 120 mM NaCl, 5.4 mM KCl, • 1.2 mM CaCl2, 1.2 mM MgSO4, 5 mM DGlucose, 1 mM Ascorbic Acid
Any compound with minimum of 20% antagonism at 10 micromolar concentration as described above, is deemed a SERT inhibitor.

[2] = system: gastric emptying in C57B/6 mice; assay: Gastric emptying (phenol red) in IBS and control mice after 10 days of oral treatment; assay type: in vivo; details: P<0.05; for gastric emptying: 10 mg/kg by gavage once a day for 10 days, versus vehicle
From the text: In this experiment our aim was to study the effects of N-(2-((diaminomethylene)amino)ethyl)-4-(((3S,4R)-4-(4-fluorophenyl)piperidin-3-yl)methoxy)benzamide (example 8) in healthy mice as well as those with a model of gastrointestinal dysmotility (irritable bowel syndrome). The IBS model was induced by mild neonatal colorectal irritation in C57B/6 mice; control mice received saline. Twenty μL of 0.5% acetic acid (AA) or saline were infused into the colorectum of mice during postnatal day 9-12. Pups were weaned at 3 weeks of age and allowed to grow up normally and tested after 8-12 weeks of age.
Male IBS and control mice were treated with vehicle, Example 8 (10 mg/kg) and paroxetine (10 mg/kg) by gavage (10 ml/kg) once a day for 10 days. On the day 9, mice were fasted overnight. On the day 10, mice were treated with drugs followed by gavage with 0.3 ml of 0.05% phenol red in methylcellulose solution. Fifteen minutes later, mice were sacrificed and the stomach was removed after ligating the cardia and pylorus with hemostats. One mouse was sacrificed immediately after gavage of phenol red (0 time) used as control. The stomachs were homogenized and phenol red were extracted. After measuring the density of phenol red, the gastric empty was calculated as
The data were analyzed by Two-WAY ANOVA followed by Student-Newman-Keuls post-hoc test.

[3] = IBS mice (neonatal acetic acid colorectal irritation)

| Structure (SMILES) | inhibition at 10 µM [1] | further results |
| --- | --- | --- |
| O=C(O)c1ccc(OC[C@@H]2CNCC[C@H]2c2ccc(F)cc2)cc1 [Example 1, 4-(((3S,4R)-4-(4-fluorophenyl)piperidin-3-yl)methoxy)benzoic acid hydrochloride] | > 50% | – |
| O=C(O)c1cccc(OC[C@@H]2CNCC[C@H]2c2ccc(F)cc2)c1 [Example 2, 3-(((3S,4R)-4-(4-fluorophenyl)piperidin-3-yl)methoxy)benzoic acid hydrochloride] | 40 to 50% | – |
| O=C(O)c1ccc(OC[C@@H]2CNCC[C@H]2c2ccc(F)cc2)cc1O [Example 3, 4-(((3S,4R)-4-(4-fluorophenyl)piperidin-3-yl)methoxy)-2-hydroxybenzoic acid hydrochloride] | > 50% | – |
| COc1ccc(OC[C@@H]2CNCC[C@H]2c2ccc(F)cc2)cc1C(=O)O [Example 4, 5-(((3S,4R)-4-(4-fluorophenyl)piperidin-3-yl)methoxy)-2-methoxybenzoic acid hydrochloride] | > 50% | – |
| NCCNC(=O)c1ccc(OC[C@@H]2CNCC[C@H]2c2ccc(F)cc2)cc1 [Example 5, N-(2-aminoethyl)-4-(((3S,4R)-4-(4-fluorophenyl)piperidin-3-yl)-methoxy)benzamide hydrochloride] | > 50% | – |
| CN(C)CCNC(=O)c1ccc(OC[C@@H]2CNCC[C@H]2c2ccc(F)cc2)cc1 [Example 6, N-(2-(dimethylamino)ethyl)-4-(((3S,4R)-4-(4-fluorophenyl)piperidin-3-yl)methoxy)benzamide hydrochloride] | > 50% | – |
| CN(C)CCN(C)C(=O)c1ccc(OC[C@@H]2CNCC[C@H]2c2ccc(F)cc2)cc1 [Example 7, N-(2-(dimethylamino)ethyl)-4-(((3S,4R)-4-(4-fluorophenyl)piperidin-3-yl)methoxy)-N-methylbenzamide hydrochloride] | > 50% | – |
| NC(N)=NCCNC(=O)c1ccc(OC[C@@H]2CNCC[C@H]2c2ccc(F)cc2)cc1 [Example 8, N-(2-((diaminomethylene)amino)ethyl)-4-(((3S,4R)-4-(4-fluorophenyl)piperidin-3-yl)methoxy)benzamide] | > 50% | liquid gastric emptying ([2]; FIG. 1, chronic treatment, versus H2O treated group in the same model): increases; gastric emptying [2, 3]: significantly increased; gastric emptying ([2]; saline (control) mice): significantly increased |
| NC(=O)NCCNC(=O)c1ccc(OC[C@@H]2CNCC[C@H]2c2ccc(F)cc2)cc1 [Example 9, 4-(((3S,4R)-4-(4-fluorophenyl)piperidin-3-yl)methoxy)-N-(2-ureidoethyl)benzamide hydrochloride] | > 50% | – |
| NCCOc1ccc(OC[C@@H]2CNCC[C@H]2c2ccc(F)cc2)cc1 [Example 10, 2-(4-(((3S,4R)-4-(4-fluorophenyl)piperidin-3-yl)methoxy)phenoxy)-ethan-1-amine hydrochloride] | 40 to 50% | – |
| CN(C)CCOc1ccc(OC[C@@H]2CNCC[C@H]2c2ccc(F)cc2)cc1 [Example 11, 2-(4-(((3S,4R)-4-(4-fluorophenyl)piperidin-3-yl)methoxy)phenoxy)-N,N-dimethylethan-1-amine hydrochloride] | 40 to 50% | – |
| CN(C)CCCOc1ccc(OC[C@@H]2CNCC[C@H]2c2ccc(F)cc2)cc1 [Example 12, 3-(4-(((3S,4R)-4-(4-fluorophenyl)piperidin-3-yl)methoxy)phenoxy)-N,N-dimethylpropan-1-amine hydrochloride] | > 50% | – |
| OCCOc1ccc(OC[C@@H]2CNCC[C@H]2c2ccc(F)cc2)cc1 [Example 13, 2-(4-(((3S,4R)-4-(4-fluorophenyl)piperidin-3-yl)methoxy)phenoxy)ethan-1-ol hydrochloride] | > 50% | – |
| OCCOCCOc1ccc(OC[C@@H]2CNCC[C@H]2c2ccc(F)cc2)cc1 [Example 14, 2-(2-(4-(((3S,4R)-4-(4-fluorophenyl)piperidin-3-yl)methoxy)phenoxy)ethoxy)ethan-1-ol hydrochloride] | 20 to 40% | – |
| O=C(O)COc1ccc(OC[C@@H]2CNCC[C@H]2c2ccc(F)cc2)cc1 [Example 15, 2-(4-(((3S,4R)-4-(4-fluorophenyl)piperidin-3-yl)methoxy)phenoxy)acetic acid hydrochloride] | 20 to 40% | – |
| O=C(O)COCCOc1ccc(OC[C@@H]2CNCC[C@H]2c2ccc(F)cc2)cc1 [Example 16, 2-(2-(4-(((3S,4R)-4-(4-fluorophenyl)piperidin-3-yl)methoxy)phenoxy)-ethoxy)acetic acid hydrochloride] | 20 to 40% | – |
| C[N+]1(C)CC[C@@H](c2ccc(F)cc2)[C@H](CCc2ccc3c(c2)OCO3)C1 [Example 17, (3S,4R)-3-(2-(benzo[d][1,3]dioxol-5-yl)ethyl)-4-(4-fluorophenyl)-1,1-dimethylpiperidin-1-ium iodide] | > 50% | – |
| Fc1ccc([C@@H]2CCNC[C@H]2COc2ccc3c(c2)OCO3)cc1 [paroxetine, reference compound] | – | gastric emptying [2, 3]: not observed; gastric emptying ([2]; saline (control) mice): not observed |
